# Tested on: LXRα and/or LXRβ
# Assay: Co-transfection assay (LXRE luciferase reporter, CV-1 cells)
# Format: cell-based, human
# Details: tested as described in Example 33; IC50 or EC50 for LXRα and/or LXRβ, isoform not specified; read-out: activity (IC50 or EC50 for LXR)
# Description: To measure the ability of compounds to activate or inhibit the transcriptional activity of LXR in a cell based assay, the co-transfection assay was used. It has been shown that LXR functions as a heterodimer with RXR. For the co-transfection assay, expression plasmids for LXR and RXR are introduced via transient transfection into mammalian cells along with a luciferase reporter plasmid that contains one copy of a DNA sequence that is bound by LXR-RXR heterodimers (LXRE; Willy, P. et. al. 1995). Treatment of transfected cells with an LXR agonist increases the transcriptional activity of LXR, which is measured by an increase in luciferase activity.
# CV-1 African Green Monkey Kidney Cells Co-transfection expression plasmids, comprising full-length LXRα (pCMX-h LXRα, LXRβ (pCMX-hLXRβ), or RXRα (pCMX-RXR), reporter plasmid (LXREx1-Tk-Luciferase), and control (pCMX-Galactosidase expression vector) (Willey et al. Genes & Development 9 1033-1045 (1995)). Transfection reagent such as FuGENE6 (Roche). 1× Cell lysis buffer (1% Triton X 100 (J T Baker X200-07), 10% Glycerol (J T Baker M778-07), 5 mM Ditriotreitol (Quantum Bioprobe DTT03; add fresh before lysing), 1 mM EGTA (Ethylene Glycol-bis(B-Amino ethyl ether)-N,N,N′,N′-Tetracetic Acid) (Sigma E-4378), 25 mM Tricine (ICN 807420) pH 7.8) 1× Luciferase assay buffer (pH at 7.8) (0.73 mM ATP, 22.3 mM Tricine, 0.11 mM EDTA, 33.3 mM DTT) 1× Luciferrin/CoA (11 mM Luciferin, 3.05 mM Coenzyme A, 10 mM HEPES)
# CV-1 cells were prepared 24 hours prior to the experiment by plating them into T-175 flasks or 500 cm^2 dishes in order to achieve 70-80% confluency on the day of the transfection. The number of cells to be transfected was determined by the number of plates to be screened. Each 384 well plate requires 1.92×10^6 cells or 5000 cells per well. DNA Transfection Reagent was prepared by mixing the required plasmid DNAs with a cationic lipid transfection reagent FuGENE6 (Roche) by following the instructions provided with the reagents. Optimal DNA amounts were determined empirically per cell line and size of vessel to be transfected. 10-12 mL of media was added to the DNA Transfection Reagent and this mixture was added to the cells after aspirating media from the T175 cm^2 flask. Cells were then incubated at least 5 hours at 37° C. to prepare screening cells.
# Luciferase assay reagent was prepared by combining before use (per 10 mL): 10 mL 1× Luciferase assay buffer; 0.54 mL of 1× Luciferrin/CoA; 0.54 mL of 0.2 M Magnesium sulfate
# Assay plates were prepared by dispensing 5 μL, of compound per well of a 384 well plate to achieve final compound concentration of 10 μM and no more than 1% DMSO. Media was removed from the screening cells, the cells trypsinized, harvested cells by centrifugation, counted, and plated at a density of approximately 5000 cells per well in the 384 well assay plate prepared above in a volume of about 45 μL. Assay plates containing both compounds and screening cells (50 μL in total volume) were incubated for 20 hours at 37° C.
# After incubation with compounds, media was removed from the cells and lysis buffer (30 μL/well) added. After 30 minutes at ambient temperature, luciferase assay buffer (30 μL/well) was added and the assay plates read on a luminometer (PE Biosystems Northstar reader with on-board injectors, or equivalent). Plates were read immediately after addition of luciferase assay buffer.
# The LXR/LNRE co-transfection assay can be used to establish the EC50/IC50 values for potency and percent activity or inhibition for efficacy. Efficacy defines the activity of a compound relative to a high control ((N-(3-((4-fluorophenyl)-(naphthalene-2-sulfonyl)amino)propyl)-2,2-dimethylpropionamide)) or a low control (DMSO/vehicle). The dose response curves are generated from an 8 point curve with concentrations differing by ½ LOG units. Each point represents the average of 4 wells of data from a 384 well plate. […]
row,"IC50 or EC50 (potency, activation or inhibition)",SMILES
1,< 1000 nM,"Cc1cc(-c2cccc(S(C)(=O)=O)c2)ccc1-n1cc(C(=O)NCC(F)(F)F)nc1-c1c(Cl)cccc1Cl [Example 85, 2-(2,6-dichlorophenyl)-1-(3-methyl-3′-(methylsulfonyl)biphenyl-4-yl)-N-(2,2,2-trifluoroethyl)-1H-imidazole-4-carboxamide]"
2,< 1000 nM,"CCN(CC)C(=O)c1cn(-c2ccc(-c3cccc(S(C)(=O)=O)c3)cc2C)c(-c2c(Cl)cccc2Cl)n1 [Example 86, 2-(2,6-dichlorophenyl)-N,N-diethyl-1-(3-methyl-3′-(methylsulfonyl)biphenyl-4-yl)-1H-imidazole-4-carboxamide]"
3,< 1000 nM,"CS(=O)(=O)c1cccc(-c2ccc(-n3cc(C(=O)NCC(F)(F)F)nc3-c3c(Cl)cccc3Cl)cc2)c1 [Example 87, 2-(2,6-dichlorophenyl)-1-(3′-(methyl-sulfonyl)biphenyl-4-yl)-4-(2,2,2-trifluoroethyl)-1H-imidazole-4-carboxamide]"
4,< 1000 nM,"CS(=O)(=O)c1cccc(-c2ccc(-n3cc(C(=O)NCCF)nc3-c3c(Cl)cccc3Cl)cc2)c1 [Example 88, 2-(2,6-dichlorophenyl)-N-(2-fluoroethyl)-1-(3′-(methyl-sulfonyl)biphenyl-4-yl)-1H-imidazole-4-carboxamide]"
5,< 1000 nM,Cc1cc(-c2cccc(S(C)(=O)=O)c2)ccc1-n1cc(C(=O)NCC(F)(F)F)nc1-c1ccccc1C(C)C [Example 89]
6,< 1000 nM,"CN(C)c1cccc(F)c1-c1nc(C(C)(C)O)cn1-c1ccc(-c2cccc(S(C)(=O)=O)c2)cc1 [Example 90, 2-(2-(2-(dimethylamino)-6-fluoro-phenyl)-1-(3′-(methylsulfonyl)biphenyl-4-yl)-1H-imidazol-4-yl)propan-2-ol]"
7,1000 to 10000 nM,"CCS(=O)(=O)c1cccc(-c2ccc(-n3cc(C(C)(C)O)nc3-c3c(Cl)cccc3Cl)cc2)c1 [Example 91, 2-(2-(2,6-dichlorophenyl)-1-(3′-(ethylsulfonyl)biphenyl-4-yl)-1H-imidazol-4-yl)propan-2-ol]"
8,1000 to 10000 nM,"CCS(=O)(=O)c1cccc(-c2ccc(-n3cc(C(C)(C)O)nc3-c3c(F)cccc3Cl)cc2)c1 [Example 92, 2-(2-(2-chloro-6-fluorophenyl)-1-(3′-(ethylsulfonyl)biphenyl-4-yl)-1H-imidazol-4-yl)propan-2-ol]"
9,< 1000 nM,CCc1ccccc1-c1nc(C(C)(C)O)cn1-c1ccc(-c2cccc(S(C)(=O)=O)c2)cc1 [Example 93]
10,< 1000 nM,"CC(C)c1ccccc1-c1nc(C(C)(C)O)cn1-c1ccc(-c2cccc(S(C)(=O)=O)c2)cc1 [Example 94, 2-(2-(2-isopropylphenyl)-1-(3′-(methylsulfonyl)biphenyl-4-yl)-1H-imidazol-4-yl)propan-2-ol]"
11,< 1000 nM,"CCS(=O)(=O)c1cccc(-c2ccc(-n3cc(C(C)(C)O)nc3-c3cccc(F)c3Cl)cc2)c1 [Example 95, 2-(2-(2-chloro-3-fluorophenyl)-1-(3′-(ethylsulfonyl)biphenyl-4-yl)-1H-imidazol-4-yl)propan-2-ol]"
12,< 1000 nM,"CCS(=O)(=O)c1cccc(-c2ccc(-n3cc(C(C)(C)O)nc3-c3ccccc3C(C)C)cc2)c1 [Example 96, 2-(1-(3′-(ethylsulfonyl)biphenyl-4-yl)-2-(2-isopropylphenyl)-1H-imidazol-4-yl)propan-2-ol]"
13,1000 to 10000 nM,"CCS(=O)(=O)c1cccc(-c2ccc(-n3cc(C(C)(C)O)nc3-c3c(C)cccc3Cl)cc2)c1 [Example 97, 2-(2-(2-chloro-6-methylphenyl)-1-(3′-(ethylsulfonyl)biphenyl-4-yl)-1H-imidazol-4-yl)propan-2-ol]"
14,< 1000 nM,"CC(C)(O)c1cn(-c2ccc(-c3ccc(CO)c(S(C)(=O)=O)c3)cc2)c(-c2cccc(Cl)c2Cl)n1 [Example 98, 2-(2-(2,3-dichlorophenyl)-1-(4′-(hydroxymethyl)-3′-(methyl-sulfonyl)biphenyl-4-yl)-1H-imidazol-4-yl)propan-2-ol]"
15,< 1000 nM,"CC(C)(O)c1cn(-c2ccc(-c3ccc(CO)c(S(C)(=O)=O)c3)cc2)c(-c2c(Cl)cccc2Cl)n1 [Example 99, 2-(2-(2,6-dichlorophenyl)-1-(4′-(hydroxymethyl)-3′-(methyl-sulfonyl)biphenyl-4-yl)-1H-imidazol-4-yl)propan-2-ol]"
16,1000 to 10000 nM,"CC(C)(O)c1cn(-c2ccc(-c3ccc(CO)c(S(C)(=O)=O)c3)cc2)c(-c2c(F)cccc2Cl)n1 [Example 100, 2-(2-(2-chloro-6-fluorophenyl)-1-(4′-(hydroxymethyl)-3′-(methyl-sulfonyl)biphenyl-4-yl)-1H-imidazol-4-yl)propan-2-ol]"
17,< 1000 nM,"Cc1c(Cl)cccc1-c1nc(C(C)(C)O)cn1-c1ccc(-c2ccc(CO)c(S(C)(=O)=O)c2)cc1 [Example 101, 2-(2-(3-chloro-2-methylphenyl)-1-(4′-(hydroxymethyl)-3′-(methyl-sulfonyl)biphenyl-4-yl)-1H-imidazol-4-yl)propan-2-ol]"
18,< 1000 nM,"Cc1cccc(Cl)c1-c1nc(C(C)(C)O)cn1-c1ccc(-c2ccc(CO)c(S(C)(=O)=O)c2)cc1 [Example 102, 2-(2-(2-chloro-6-methylphenyl)-1-(4′-(hydroxymethyl)-3′-(methyl-sulfonyl)biphenyl-4-yl)-1H-imidazol-4-yl)propan-2-ol]"
19,1000 to 10000 nM,"CC(C)(O)c1cn(-c2ccc(-c3ccc(CO)c(S(C)(=O)=O)c3)cc2)c(-c2c(F)cccc2F)n1 [Example 103, 2-(2-(2,6-difluorophenyl)-1-(4′-(hydroxymethyl)-3′-(methyl-sulfonyl)biphenyl-4-yl)-1H-imidazol-4-yl)propan-2-ol]"
20,< 1000 nM,"CCS(=O)(=O)c1cccc(-c2ccc(-n3cc(C(=O)NCC(F)(F)F)nc3-c3c(Cl)cccc3Cl)c(C)c2)c1 [Example 104, 2-(2,6-dichlorophenyl)-1-(3′-(ethylsulfonyl)-3-methylbiphenyl-4-yl)-N-(2,2,2-trifluoroethyl)-1H-imidazole-4-carboxamide]"
21,< 1000 nM,"CC(C)(O)c1cn(-c2ccc(-c3ccc(C(C)(C)O)c(S(C)(=O)=O)c3)cc2)c(-c2cccc(Cl)c2Cl)n1 [Example 105, 2-(2-(2,3-dichlorophenyl)-1-(4′-(2-hydroxypropan-2-yl)-3′-(methylsulfonyl)biphenyl-4-yl)-1H-imidazol-4-yl)propan-2-ol]"
22,1000 to 10000 nM,"Cc1cc(-c2ccc(-n3cc(C(C)(C)O)nc3-c3c(Cl)cccc3Cl)cc2)cc(S(C)(=O)=O)c1 [Example 106, 2-(2-(2,6-dichlorophenyl)-1-(′3-methyl-5′-(methyl-sulfonyl)biphenyl-4-yl)-1H-imidazol-4-yl)propan-2-ol]"
23,< 1000 nM,"CC(C)(O)c1cn(-c2ccc(-c3cc(S(C)(=O)=O)ccc3Cl)cc2)c(-c2c(Cl)cccc2Cl)n1 [Example 107, 2-(1-(2′-chloro-5′-(methyl-sulfonyl)biphenyl-4-yl)-2-(2,6-dichlorophenyl)-1H-imidazol-4-yl)propan-2-ol]"
24,< 1000 nM,"CNS(=O)(=O)c1cccc(-c2ccc(-n3cc(C(C)(C)O)nc3-c3c(Cl)cccc3Cl)cc2)c1 [Example 108, 4′-(2-(2,6-dichlorophenyl)-4-(2-hydroxypropan-2-yl)-1H-imidazol-1-yl)-N-methylbiphenyl-3-sulfonamide]"

# Reference: patent US9000022B2 (Exelixis Patent Company LLC, priority 2005, dated 2015)
